Results reported in patent US20230365571A1, “COMPOUNDS AND COMPOSITIONS AS Sppl2a INHIBITORS” (Novartis AG, priority 2020, published 2023).

Legend:
Format in all cases: cell-based
Sppl2a CD74 = target: T1, Sppl2a CD74 (Mus musculus, UniProt Q9JJF9); experiment: CD74/p8 mouse whole blood assay, flow cytometry format; conditions: Balb/c mouse whole blood, 5 h, CD74 signal on gated live B cells
T1 construct: Mouse whole blood Balb/c mice (sodium citrate) was ordered by Bioreclamation LLC; tissue Bioreclamation LLC
T1 sequence (Q9JJF9 26-523): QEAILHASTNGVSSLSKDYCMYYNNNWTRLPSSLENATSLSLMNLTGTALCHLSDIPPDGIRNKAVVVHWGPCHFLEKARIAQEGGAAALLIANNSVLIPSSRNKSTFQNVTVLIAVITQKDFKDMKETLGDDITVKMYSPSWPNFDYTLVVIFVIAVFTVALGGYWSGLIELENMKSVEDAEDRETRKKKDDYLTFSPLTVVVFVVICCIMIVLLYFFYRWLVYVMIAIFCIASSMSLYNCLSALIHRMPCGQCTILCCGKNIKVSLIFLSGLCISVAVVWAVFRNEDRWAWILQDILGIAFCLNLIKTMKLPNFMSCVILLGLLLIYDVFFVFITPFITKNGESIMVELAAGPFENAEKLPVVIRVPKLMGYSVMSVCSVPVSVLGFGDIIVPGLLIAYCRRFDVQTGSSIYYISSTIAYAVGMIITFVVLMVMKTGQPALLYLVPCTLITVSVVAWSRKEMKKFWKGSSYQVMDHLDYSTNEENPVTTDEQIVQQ
Procedure: CD74/p8 Mouse Whole Blood Assay: Flow Cytometry Format
Mouse whole blood Balb/c mice (sodium citrate) was ordered by Bioreclamation LLC; USA. The blood was used the next day upon receipt (stored at 4° C.). 100 μL blood were transferred in 96 well format plate, where compounds, an 11 point dilutions down from 30 μM, to be tested were previously deposited. The plate was incubated for 5 h in the incubator at 37° C., 5% CO2 under continuous motion. After the incubation the blood was diluted with RBC Lysis Buffer (Amined; Cat. Nr 3-13F00-H or BD; Cat. Nr 555899). The solution was mixed by pipetting and incubated 10 min in the 37° C. incubator. The white blood cells were sedimented for 3 min at 2000 rpm. After removing the supernatant the cell pellet was resuspended and washed twice in RCB Buffer and kept≈ 5 min at room temperature, followed by a centrifugation for 2 min at 2000 rpm. The cell pellet was then resuspend in D-PBS and centrifuged twice. Finally, the cells were taken up in of D-PBS/0.5% inactivated fetal bovine serum/2 mM EDTA. The cell suspension was treated with Live/Dead fixable stain (Life Technologies, >470 nm version), B cells were identified by surface staining with an anti-B220 antibody coupled to APC fluorofor. After staining, the cells were extensively washed with PBS. The cells were permeabilized and fixed in FACS lysing buffer; (BD; #349202, dil 1:10 in water) and labelled with an anti CD74, FITC labelled antibody, washed once more with diluted FACS lysing buffer and spin down. The cell pellet was washed with D-PBS/0.5% inactivated fetal bovine serum/2 mM EDTA and PBS prior to the analysis in a flow cytometer. The compound concentrations were plotted against the intensity (medium fluorescence intensity) of the CD74 signal on the gated life B cell and IC50 were determined by fitting data for a 11 concentrations dose response.

human SPPL2a [1] = target: T2, human SPPL2a (Homo sapiens, UniProt Q8TCT8); experiment: Sppl2a TL (translocation) imaging assay in U-2 OS cells; design: expressed in transfected cells; conditions: U-2 OS cells expressing human SPPL2a and EGFP-TNFα(aa1-76) NTF substrate; 24 h
T2 sequence (Q8TCT8 26-520): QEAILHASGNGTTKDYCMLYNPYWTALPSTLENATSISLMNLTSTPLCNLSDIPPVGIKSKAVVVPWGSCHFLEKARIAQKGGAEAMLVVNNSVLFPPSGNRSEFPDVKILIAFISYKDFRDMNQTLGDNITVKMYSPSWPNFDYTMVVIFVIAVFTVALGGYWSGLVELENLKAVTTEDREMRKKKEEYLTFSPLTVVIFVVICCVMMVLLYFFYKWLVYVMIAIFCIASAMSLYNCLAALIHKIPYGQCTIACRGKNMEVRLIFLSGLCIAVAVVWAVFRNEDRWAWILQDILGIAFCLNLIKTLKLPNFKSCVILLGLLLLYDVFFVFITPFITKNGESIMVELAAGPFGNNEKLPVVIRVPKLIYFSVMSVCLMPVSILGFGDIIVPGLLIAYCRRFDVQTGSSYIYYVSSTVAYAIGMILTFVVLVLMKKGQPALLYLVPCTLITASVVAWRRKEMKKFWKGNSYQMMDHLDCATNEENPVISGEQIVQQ
Summary of the method: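 U-2 OS cells stably expressing human SPPL2a plus doxycycline-induced EGFP-TNFα(aa1-76) NTF, treated 24 h at 37 °C with inhibitor (100 μM–1 nM, 11 points, 0.9% DMSO, 5 μg/mL doxycycline). Imaging of nuclear-minus-cytoplasmic EGFP intensity; % inhibition versus 0.5 μM LY-411,575 and DMSO, IC50 by nonlinear regression; CC50 from cell count.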

human SPPL2a [2] = target: T2, human SPPL2a; experiment: Sppl2a RGA (reporter gene assay) in HEK293 cells; design: expressed in transfected cells; host or cells: HEK293 (transient); conditions: NT-TNF-VP16-Gal4 substrate, Gal4-luciferase reporter, 24 h
Summary of the method: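 Cleavage of a membrane-bound TNF N-terminal–VP16-Gal4 substrate drives Gal4-luciferase expression in transiently transfected HEK293 cells also expressing human SPPL2a. Compounds incubated 24 h, 37 °C, 5% CO2; luminescence read, normalized and plotted against concentration for IC50.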

Compound	IC50 (Sppl2a CD74) [nM]	IC50 (human SPPL2a [1]) [nM]	IC50 (human SPPL2a [2]) [nM]
COCc1nc(C)c(C(=O)NC[C@H](C(=O)N[C@@H]2C(=O)N3CCCN3Cc3ccccc32)C(F)(F)F)s1 [Example 52, 2-(Methoxymethyl)-4-methyl-N-((R)-3,3,3-trifluoro-2-(((S)-11-oxo-2,3,10,11-tetrahydro-1H,5H-benzo[d]pyrazolo [1,2-a][1,2]diazepin-10-yl)carbamoyl)pro-pyl)thiazole-5-carboxamide]	148	118	30
Cc1nc(C2CCOCC2)sc1C(=O)NC[C@H](C(=O)N[C@@H]1C(=O)N2CCCN2Cc2ccccc21)C(F)(F)F [Example 50, 4-Methyl-2-(tetrahydro-2H-pyran-4-yl)-N-((R)-3,3,3-trifluoro-2-(((S)-11-oxo-2,3,10,11-tetrahydro-1H,5H-benzo[d]pyrazolo [1,2-a][1,2]diazepin-10-yl)carbamoyl)pro-pyl)thiazole-5-carboxamide]	1390	97	90
CC[C@H](CNC(=O)c1sc(-c2cnn(C(F)F)c2)nc1Cl)C(=O)N[C@@H]1C(=O)N2CC3(CC3)CN2C(=O)c2ccccc21 [Example 45, 4-Chloro-2-(1-(difluoromethyl)-1H-pyrazol-4-yl)-N-((R)-2-(((S)-5,11-dioxo-10,11-dihydro-1H,3H,5H-spiro[benzo[d]pyr-azolo[1,2-a][1,2]diazepine-2,1′-cyclopropan]-10-yl)carbamoyl)butyl) thiazole-5-carboxamide]	2510	78	86
C[C@H](CC(=O)Nc1cc(C(=O)NCC(F)F)nn1C)C(=O)N[C@@H]1C(=O)N2CCCN2Cc2ccccc21 [Example 65, (R)-N^4-(3-((2,2-difluoroethyl)car-bamoyl)-1-methyl-1H-pyrazol-5-yl)-2-methyl-N^1-((S)-11-oxo-2,3,10,11-tetrahydro-1H,5H-benzo[d]pyrazolo [1,2-a][1,2]diazepin-10-yl)succinamide]	519	1	14
Cc1nc(C(=O)NCC(F)F)sc1C(=O)NC[C@H](C(=O)N[C@@H]1C(=O)N2CCCN2Cc2ccccc21)C(F)(F)F [Example 5, N^2-(2,2-Difluoroethyl)-4-methyl-N^5-((R)-3,3,3-trifluoro-2-(((S)-11-oxo-2,3,10,11-tetrahydro-1H,5H-benzo[d]pyrazolo [1,2-a][1,2]diazepin-10-yl)carbamoyl)pro-pyl)thiazole-2,5-dicarboxamide]	225	2	2
C[C@H](CC(=O)Nc1cc(NC(=O)c2ccccc2F)nn1C)C(=O)N[C@@H]1C(=O)N2CCCN2Cc2ccccc21 [Example 69, (R)-N^4-(3-(2-Fluorobenzamido)-1-methyl-1H-pyrazol-5-yl)-2-methyl-N^1-((S)-11-oxo-2,3,10,11-tetrahydro-1H,5H-benzo[d]pyrazolo [1,2-a][1,2]diazepin-10-yl)succinamide]	1240	3	9
C[C@H](CC(=O)Nc1cc(C(=O)NCC(F)(F)F)nn1C)C(=O)N[C@@H]1C(=O)N2CCCN2Cc2ccccc21 [Example 68, (R)-2-methyl-N^4-(1-methyl-3-((2,2,2-trifluoroethyl)car-bamoyl)-1H-pyrazol-5-yl)-N^1-((S)-11-oxo-2,3,10,11-tetrahydro-1H,5H-benzo[d]pyrazolo [1,2-a][1,2]diazepin-10-yl)succinamide]	329	3	34
C[C@H](CNC(=O)c1sc(C2CC2)nc1Cl)C(=O)N[C@@H]1C(=O)N2CCCN2Cc2ccccc21 [Example 43, 4-Chloro-2-cyclopropyl-N-((R)-2-methyl-3-oxo-3-(((S)-11-oxo-2,3,10,11-tetrahydro-1H,5H-benzo[d]pyrazolo [1,2-a][1,2]diazepin-10-yl)amino)propyl) thiazole-5-carboxamide]	1740	63	104
CCNC(=O)c1nc(C)c(C(=O)NC[C@@H](C)C(=O)N[C@@H]2C(=O)N3CCCN3Cc3ccccc32)s1 [Example 16, N^2-Ethyl-4-methyl-N^5-((R)-2-methyl-3-oxo-3-(((S)-11-oxo-2,3,10,11-tetrahydro-1H,5H-benzo[d]pyrazolo [1,2-a][1,2]diazepin-10-yl)amino)propyl) thiazole-2,5-dicarboxamide]	659	11	8

Second part, the molecule after the results:

IC50 (Sppl2a CD74) [nM]	IC50 (human SPPL2a [1]) [nM]	IC50 (human SPPL2a [2]) [nM]	Compound
892	14	50	COCCn1cc(-c2nc(Cl)c(NC(=O)C[C@@H](C)C(=O)N[C@@H]3C(=O)N4CCCN4Cc4ccccc43)s2)cn1 [Example 99, (R)-N^4-(4-Chloro-2-(1-(2-methoxyethyl)-1H-pyrazol-4-yl)thiazol-5-yl)-2-methyl-N^1-((S)-11-oxo-2,3,10,11-tetrahydro-1H,5H-benzo[d]pyrazolo [1,2-a][1,2]diazepin-10-yl)succinamide]
250	6	5	CC(C)NC(=O)c1cc(NC(=O)C[C@H](C(=O)N[C@@H]2C(=O)N3CCCN3Cc3c(F)cccc32)C2CC2)n(C)n1 [Example 77, (S)-2-Cyclopropyl-N^1-((S)-6-fluoro-11-oxo-2,3,10,11-tetrahydro-1H,5H-benzo[d]pyrazolo [1,2-a][1,2]diazepin-10-yl)-N^4-(3-(isopropylcarba-moyl)-1-methyl-1H-pyrazol-5-yl)succinamide]
635	11	11	Cc1cc(-c2cc(NC(=O)C[C@@H](C)C(=O)N[C@@H]3C(=O)N4CCCN4Cc4ccccc43)n(C)n2)on1 [Example 90, (R)-2-Methyl-N^4. (1-methyl-3-(3-methylisoxazol-5-yl)-1H-pyrazol-5-yl)-N^1-((S)-11-oxo-2,3,10,11-tetrahydro-1H,5H-benzo[d]pyrazolo [1,2-a][1,2]diazepin-10-yl)succinamide]
2540	12	34	C[C@H](CC(=O)Nc1cc(-c2ccccn2)nn1C)C(=O)N[C@@H]1C(=O)N2CCCN2Cc2ccccc21 [Example 94, (R)-2-Methyl-N^4-(1-methyl-3-(pyridin-2-yl)-1H-pyrazol-5-yl)-N^1-((S)-11-oxo-2,3,10,11-tetrahydro-1H,5H-benzo[d]pyrazolo [1,2-a][1,2]diazepin-10-yl)succinamide]
